# ChEMBL document CHEMBL5385925, “Phytochemical Characterization and TRPA1/TRPM8 Modulation Profile of the Cannabigerol-Rich Cannabis sativa L. Chemotype IV” (J Nat Prod, 2024)
# The source made the active and inactive calls. No cut-off for these calls is given here.
# Key:
# Type in all cases: cell-based
# [1] = target: T1, Transient receptor potential cation channel subfamily A member 1 (Rattus norvegicus, UniProt Q6RI86); test: Antagonist activity at rat TRPA1 transfected in HEK293 cells assessed as desensitization by measuring inhibition of AITC induced increase in intracellular Ca2+ concentration preincubated for 5 mins followed by AITC stimulation by Fluo4-AM dye based assay
# [2] = target: Transient receptor potential cation channel subfamily M member 8 (Rattus norvegicus, UniProt Q8R455); test: Antagonist activity at rat TRPM8 transfected in HEK293 cells assessed as inhibition of icilin induced increase in intracellular Ca2+ concentration preincubated for 5 mins followed by icilin stimulation by Fluo4-AM dye based assay
# [3] = target: Transient receptor potential cation channel subfamily V member 1 (Homo sapiens) (UniProt Q8NER1); test: Modulation of human TRPV1 transfected in HEK293 cells
# [4] = target: T1, Transient receptor potential cation channel subfamily A member 1; test: Agonist activity at rat TRPA1 transfected in HEK293 cells assessed as increase in intracellular Ca2+ concentration by Fluo4-AM dye based assay
# [5] = target: Transient receptor potential cation channel subfamily A member 1 (Rattus norvegicus) (UniProt Q6RI86); test: Agonist activity at rat TRPA1 transfected in HEK293 cells assessed as increase in intracellular Ca2+ concentration by measuring efficacy by Fluo4-AM dye based assay relative to AITC
# Sequence of Transient receptor potential cation channel subfamily A member 1 (Rattus norvegicus) (Q6RI86 whole entry): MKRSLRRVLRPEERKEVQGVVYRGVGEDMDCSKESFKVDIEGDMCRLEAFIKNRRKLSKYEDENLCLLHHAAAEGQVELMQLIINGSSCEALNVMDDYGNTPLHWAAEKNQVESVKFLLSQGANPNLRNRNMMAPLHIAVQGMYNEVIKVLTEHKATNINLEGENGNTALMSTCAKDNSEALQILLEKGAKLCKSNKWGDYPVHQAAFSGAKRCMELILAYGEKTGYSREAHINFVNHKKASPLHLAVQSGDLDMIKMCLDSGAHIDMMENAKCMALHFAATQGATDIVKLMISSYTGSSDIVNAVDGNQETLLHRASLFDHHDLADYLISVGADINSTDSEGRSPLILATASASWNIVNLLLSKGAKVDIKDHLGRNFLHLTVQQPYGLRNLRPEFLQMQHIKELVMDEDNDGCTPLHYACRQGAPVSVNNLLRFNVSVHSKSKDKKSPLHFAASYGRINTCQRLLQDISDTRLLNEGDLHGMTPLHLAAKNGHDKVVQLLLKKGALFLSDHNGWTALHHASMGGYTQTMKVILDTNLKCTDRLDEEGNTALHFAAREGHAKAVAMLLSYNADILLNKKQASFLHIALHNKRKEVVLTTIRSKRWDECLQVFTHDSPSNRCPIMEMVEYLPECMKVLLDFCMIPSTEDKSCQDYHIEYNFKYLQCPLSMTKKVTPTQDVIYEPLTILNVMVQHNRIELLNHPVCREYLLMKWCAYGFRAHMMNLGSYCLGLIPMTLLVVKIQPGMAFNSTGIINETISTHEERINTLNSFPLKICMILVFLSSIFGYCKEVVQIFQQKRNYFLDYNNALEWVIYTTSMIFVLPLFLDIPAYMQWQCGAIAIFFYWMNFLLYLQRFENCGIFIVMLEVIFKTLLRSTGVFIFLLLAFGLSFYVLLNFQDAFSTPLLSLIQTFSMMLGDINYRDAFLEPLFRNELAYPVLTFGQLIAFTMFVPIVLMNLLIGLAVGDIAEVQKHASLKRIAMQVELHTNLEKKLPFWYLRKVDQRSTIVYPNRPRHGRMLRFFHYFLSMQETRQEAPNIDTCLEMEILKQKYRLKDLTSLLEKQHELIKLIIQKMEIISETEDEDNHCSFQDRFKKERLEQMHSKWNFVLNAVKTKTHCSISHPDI
# T1 sequence (Q6RI86 whole entry): as above
# Sequence of Transient receptor potential cation channel subfamily V member 1 (Homo sapiens) (Q8NER1 whole entry): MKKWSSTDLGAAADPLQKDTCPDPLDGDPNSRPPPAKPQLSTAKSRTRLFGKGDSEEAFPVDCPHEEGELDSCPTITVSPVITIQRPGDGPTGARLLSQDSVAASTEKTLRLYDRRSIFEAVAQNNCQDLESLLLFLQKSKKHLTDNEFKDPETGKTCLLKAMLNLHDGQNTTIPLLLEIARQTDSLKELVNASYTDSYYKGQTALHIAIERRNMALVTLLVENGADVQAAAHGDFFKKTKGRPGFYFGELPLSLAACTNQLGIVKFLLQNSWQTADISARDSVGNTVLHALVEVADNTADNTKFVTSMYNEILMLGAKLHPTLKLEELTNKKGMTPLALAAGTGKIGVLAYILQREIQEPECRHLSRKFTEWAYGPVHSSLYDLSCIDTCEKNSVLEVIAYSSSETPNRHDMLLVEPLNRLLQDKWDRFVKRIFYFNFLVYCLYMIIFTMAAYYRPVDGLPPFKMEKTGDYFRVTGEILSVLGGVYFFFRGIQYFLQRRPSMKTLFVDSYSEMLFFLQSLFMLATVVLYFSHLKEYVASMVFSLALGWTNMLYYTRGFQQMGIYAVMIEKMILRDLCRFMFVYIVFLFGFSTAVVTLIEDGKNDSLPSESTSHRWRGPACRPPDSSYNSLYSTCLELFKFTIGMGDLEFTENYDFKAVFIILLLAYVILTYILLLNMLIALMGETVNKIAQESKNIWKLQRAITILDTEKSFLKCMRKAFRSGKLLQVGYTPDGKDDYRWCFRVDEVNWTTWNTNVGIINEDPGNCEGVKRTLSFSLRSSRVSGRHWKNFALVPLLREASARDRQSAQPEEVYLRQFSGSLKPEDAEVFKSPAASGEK
# Sequence of Transient receptor potential cation channel subfamily M member 8 (Q8R455 whole entry): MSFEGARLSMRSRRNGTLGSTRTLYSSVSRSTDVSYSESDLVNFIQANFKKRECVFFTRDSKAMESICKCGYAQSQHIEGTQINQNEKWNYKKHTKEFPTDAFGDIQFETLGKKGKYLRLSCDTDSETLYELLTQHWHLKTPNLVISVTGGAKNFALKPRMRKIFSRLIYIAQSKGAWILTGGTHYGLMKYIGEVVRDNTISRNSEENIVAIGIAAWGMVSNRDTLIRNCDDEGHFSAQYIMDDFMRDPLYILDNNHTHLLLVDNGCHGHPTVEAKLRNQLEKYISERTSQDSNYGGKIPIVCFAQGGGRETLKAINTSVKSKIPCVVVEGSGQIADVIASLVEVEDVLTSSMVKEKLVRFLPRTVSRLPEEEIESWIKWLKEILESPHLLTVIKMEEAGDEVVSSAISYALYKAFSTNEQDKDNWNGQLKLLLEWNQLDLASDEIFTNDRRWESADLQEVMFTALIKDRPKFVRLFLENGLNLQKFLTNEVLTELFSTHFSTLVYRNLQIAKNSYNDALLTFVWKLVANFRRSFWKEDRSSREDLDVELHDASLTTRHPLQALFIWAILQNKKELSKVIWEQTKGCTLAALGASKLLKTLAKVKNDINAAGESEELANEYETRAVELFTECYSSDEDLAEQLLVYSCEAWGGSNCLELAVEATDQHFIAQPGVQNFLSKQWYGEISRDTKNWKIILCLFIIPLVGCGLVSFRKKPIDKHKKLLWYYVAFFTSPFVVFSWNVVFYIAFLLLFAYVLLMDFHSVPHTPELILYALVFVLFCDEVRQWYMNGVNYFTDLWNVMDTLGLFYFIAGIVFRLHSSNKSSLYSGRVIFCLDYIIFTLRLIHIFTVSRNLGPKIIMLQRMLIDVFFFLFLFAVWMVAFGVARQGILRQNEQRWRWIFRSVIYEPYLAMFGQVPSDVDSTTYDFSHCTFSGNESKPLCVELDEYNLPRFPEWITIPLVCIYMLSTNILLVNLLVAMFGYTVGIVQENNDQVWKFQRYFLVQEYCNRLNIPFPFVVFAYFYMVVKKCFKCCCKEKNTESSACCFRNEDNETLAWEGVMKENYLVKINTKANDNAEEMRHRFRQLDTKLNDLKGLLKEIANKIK
SMILES,IC50 [1] [µM],IC50 [2] [µM],Activity [3],EC50 [4] [µM],Efficacy ([5]; filed as agonist) [%],Efficacy [5] [%]
C=C(C)C(O)CC/C(C)=C\Cc1c(O)cc(CCCCC)c(C(=O)O)c1O (stereo not drawn),13.9,4,inactive,6.9,100,
C=C(C)[C@@H](O)CC/C(C)=C/Cc1c(O)cc(CCCCC)c(C(=O)O)c1O,> 50,33,,15,,31
C=C(C)[C@H](CCC(C)=O)[C@@H]1c2c(cc(CCCCC)c(C(=O)O)c2O)O[C@@H]1O,19.2,8,,8.8,85.7,
C=C(C)C(O)CC/C(C)=C/Cc1c(O)cc(CCCCC)cc1O (racemic),7.9,0.8,inactive,1,75.3,
CCCCCC1=CC(=O)C(C/C=C(\C)CCC=C(C)C)=C(O)C1=O,8.4,3,inactive,7.8,134,
C=C(C)C(O)CC/C(C)=C/Cc1c(O)cc(CCCCC)c(C(=O)O)c1O (stereo not drawn),37.3,10.4,,12.1,96.1,
C=C(C)[C@H](CCC(C)=O)[C@@H]1c2c(cc(CCCCC)c(C(=O)O)c2O)O[C@H]1O,17.9,23.9,,6.6,91.5,
CCCCCc1cc(O)c(C/C=C(\C)CCC(=O)O)c(O)c1C(=O)O,> 50,29.5,,28.3,40.4,
CCCCCc1cc(O)c(C/C=C(\C)CCC(O)C(C)(C)O)c(O)c1C(=O)O (stereo not drawn),25.1,17.3,,10.3,84.1,
CCCCCc1cc(O)c(C/C=C(\C)CCC=C(C)C)c(O)c1C(=O)O [CANNABIGEROLIC ACID],7.14,1.31,,8.4,183,
C=C(C)[C@H](O)CC/C(C)=C/Cc1c(O)cc(CCCCC)c(C(=O)O)c1O,> 50,5.2,,8.5,68.5,
CCCCCc1cc(O)c(C/C=C(\C)CCC=C(C)C)c(O)c1,,,,,99.9,
